The subject of one experiment is TMD8 tumor cells. In words: TMD8 large B lymphoma xenograft model in C.B. 17 SCID mice. The experiment is classed as in vivo, mouse. As to conditions: FIG. 6 A-C. The protocol: Cell Culture: The OCI-LY10 or TMD8 tumor cells were maintained as suspension in RPMI1640 medium supplemented with 10% fetal bovine serum, 100 U/mL penicillin and 100 μg/mL streptomycin at 37° C. in an atmosphere of 5% CO2 in air. The tumor cells were routinely subcultured twice weekly by trypsin-EDTA treatment. The cells growing in an exponential growth phase were harvested and counted for tumor inoculation.
Animals: C.B. 17 SCID, female, 6-8 weeks, weighing approximately 16-18 g were used. Animals were housed and maintained according to IACUC protocols. […]
Assignment to Groups: Before commencement of treatment, all animals were weighed and the tumor volumes were measured. […]
Observation: After tumor inoculation, the animals were checked daily for morbidity and mortality. […] Mortality and observed clinical signs were recorded for individual animals in detail.
Data Collection: Tumor volumes were measured in two dimensions using a caliper, and the volumes were expressed in mm^3 using the formula: “V=(L×W×W)/2, where V is tumor volume, L is tumor length (the longest tumor dimension) and W is tumor width (the longest tumor dimension perpendicular to L).
At termination: At pre-determined time points based on study design, animals were humanely sacrificed by CO2. […] Compound was determined in tumor and plasma using LC/MS with calibrated standards.

The next experiment deals with OCI-LY10 cells. In words: OCI-LY10 flow staining (Ki67, active Caspase-3, IRAK4). The experiment is classed as cell-based, human. The following applies: FIG. 4. The protocol:
OC1-LY10 cell line was cultured in IMDM medium supplemented with 20% FBS, B-ME and pen/strep. On Day 1, cells were plated at 200K per well in 96 well plates. Compounds were diluted to 1000× in DMSO, then further diluted to 100× in media, and added to cells at 4 concentrations over 4 different timepoints (24h, 48h, 72h and 96h). Timepoints were staggered so all cells were harvested and stained at the same time. Paclitaxel was added as a positive control and a DMSO control for each timepoint was also included. On day 5, plates were harvested and cells were fixed, permeabilized, and stored at −4 C until further processing. On day 8, the Ki67 plates were stained using KI-67-APC antibody (Biolegend, Cat #350514). The Caspase 3 plates were stained using the PE Active Caspase-3 Apoptosis Kit (BD Biosciences, Cat #550914) and the IRAK 4 plates were stained with Hu IRAK4 A^b Alexa 647 Clone: L29-525 antibody (BD, Cat #560315). Cells were resuspended in staining buffer and run on a Beckman Coulter CytoFlex 13 color Cytometer (Model #A00-1-1102, Serial #AS10086).

For a further experiment, the system named is SU-DHL2. In words: SU-DHL2 viability, CTG. Type of experiment: cell-based. As to conditions: Homo sapiens, SU-DHL-2.
In a further experiment the test system is U2932. In words: U2932 viability, CTG. As to conditions: Homo sapiens, U2932. Type of experiment: cell-based.

Like-named read-outs stand apart in the source and are kept apart here.

Take `CN(CCCOCCCc1cccc2c1n(C)c(=O)n2C1CCC(=O)NC1=O)C[C@H]1CC[C@H](n2cc(NC(=O)c3coc(-c4ccnc(NCC5CC5)c4)n3)c(C(F)F)n2)CC1` (mixture of isomers) [I-30, 2-[2-(Cyclopropylmethylamino)-4-pyridyl]-N-[3-(difluoromethyl)-1-[4-[[3-[3-[1-(2,6-dioxo-3-piperidyl)-3-methyl-2-oxo-benzimidazol-4-yl]propoxy]propyl-methyl-amino]methyl]cyclohexyl]pyrazol-4-yl] oxazole-4-carboxamide]: the “activity in TMD8 xenograft model” value in the experiment on TMD8 tumor cells is “active”. The “induction of apoptosis in OCI-LY10 lymphoma line” value in the experiment with OCI-LY10 cells was “induces apoptosis”.

Consider `CN(C[C@H]1CC[C@H](n2cc(NC(=O)c3coc(-c4ccnc(NCC5CC5)c4)n3)c(C(F)F)n2)CC1)C1CCN(Cc2cccc3c2n(C)c(=O)n3C2CCC(=O)NC2=O)CC1` (stereo partly drawn) [I-75, 2-(2-((cyclopropylmethyl)amino)pyridin-4-yl)-N-(3-(difluoromethyl)-1-((1r,4r)-4-(((1-((1-(2,6-dioxopiperidin-3-yl)-3-methyl-2-oxo-2,3-dihydro-1H-benzo[d]imidazol-4-yl)methyl)piperidin-4-yl)(methyl)amino)methyl)cyclohexyl)-1H-pyrazol-4-yl)oxazole-4-carboxamide], for which the IC50 in the experiment with SU-DHL2 (MYD88 MUT, read-out: SU-DHL2 CTG IC50) worked out at 290 nM; in the experiment on SU-DHL2 (MYD88 Mutant Lines, read-out: SU-DHL2 Viability, CTG IC50) it was 290 nM; in the experiment with U2932 (MYD88 WT Lines, read-out: U2932 Viability, CTG IC50), 374 nM; with U2932 (MYD88 WT, read-out: U2932 CTG IC50) it was 374 nM.

As a reminder, the IC50 is the concentration at which inhibition is half-maximal.

The record behind these values is patent publication US11352350B2, “IRAK degraders and uses thereof” (Kymera Therapeutics, Inc., priority 2018, dated 2022).
